The values that follow come from ChEMBL document CHEMBL1201862, “PubChem BioAssay data set” (2004).

Assay [1] deals with T1, Alkaline phosphatase, tissue-nonspecific isozyme (Homo sapiens, UniProt P05186).
T1 sequence (P05186 whole entry): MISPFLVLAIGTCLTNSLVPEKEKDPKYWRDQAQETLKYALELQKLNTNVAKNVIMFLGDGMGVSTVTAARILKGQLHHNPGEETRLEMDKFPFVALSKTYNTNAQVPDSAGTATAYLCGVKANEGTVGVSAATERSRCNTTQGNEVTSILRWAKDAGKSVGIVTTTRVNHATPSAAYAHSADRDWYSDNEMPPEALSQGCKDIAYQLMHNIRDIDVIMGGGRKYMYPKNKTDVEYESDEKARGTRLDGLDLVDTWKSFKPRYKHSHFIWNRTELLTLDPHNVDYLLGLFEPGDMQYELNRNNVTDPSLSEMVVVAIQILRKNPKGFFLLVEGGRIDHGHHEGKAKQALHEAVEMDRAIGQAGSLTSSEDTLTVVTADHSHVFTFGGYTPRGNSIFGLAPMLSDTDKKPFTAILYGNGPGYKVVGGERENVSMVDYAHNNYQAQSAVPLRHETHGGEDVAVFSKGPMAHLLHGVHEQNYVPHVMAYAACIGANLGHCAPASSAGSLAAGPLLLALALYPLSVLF
Kind of assay: TNAP enzyme inhibition by screening hits, dose response, selectivity assay for mouse IAP inhibitor project, biochemical, human TNAP, uHTS hits (AID 488906). It counts as functional.

Assay [2] concerns the target Ras and Rab interactor 1/Tyrosine-protein kinase ABL1 (Homo sapiens, UniProt P00519+Q13671). The format is functional.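 Also: biochemical TR-FRET dose-response test measuring inhibition of binding between Rin1 and Abl proteins.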
In assay [3] the target is T2, High affinity choline transporter 1 (Homo sapiens, UniProt Q9GZV3).
T2 sequence (Q9GZV3 whole entry): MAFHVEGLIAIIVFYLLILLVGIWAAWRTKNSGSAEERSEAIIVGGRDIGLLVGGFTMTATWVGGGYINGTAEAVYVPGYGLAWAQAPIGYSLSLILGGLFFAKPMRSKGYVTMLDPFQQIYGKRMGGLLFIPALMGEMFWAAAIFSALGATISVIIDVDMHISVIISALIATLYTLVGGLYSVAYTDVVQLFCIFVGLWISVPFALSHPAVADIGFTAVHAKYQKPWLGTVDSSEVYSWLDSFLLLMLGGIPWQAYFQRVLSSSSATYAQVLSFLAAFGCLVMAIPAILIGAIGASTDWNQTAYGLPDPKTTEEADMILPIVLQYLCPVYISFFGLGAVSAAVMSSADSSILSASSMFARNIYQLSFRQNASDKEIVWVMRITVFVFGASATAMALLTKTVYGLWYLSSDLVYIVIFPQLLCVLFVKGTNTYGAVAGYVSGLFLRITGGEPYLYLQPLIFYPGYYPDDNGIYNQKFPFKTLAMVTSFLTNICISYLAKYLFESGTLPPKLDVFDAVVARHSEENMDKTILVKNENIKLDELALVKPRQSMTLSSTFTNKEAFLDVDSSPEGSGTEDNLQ
Kind of assay: human choline transporter blockers, potency – cell-based, 5-point CRC, membrane potential dye, dose response (AID 504840). The format is functional.

The target in assay [4] is Intestinal-type alkaline phosphatase (Homo sapiens, UniProt P09923). Kind of assay: activation of human intestinal alkaline phosphatase – biochemical, dose response (AID 488873). The format is functional.
Chain of Intestinal-type alkaline phosphatase (Homo sapiens, UniProt P09923) (P09923 whole entry): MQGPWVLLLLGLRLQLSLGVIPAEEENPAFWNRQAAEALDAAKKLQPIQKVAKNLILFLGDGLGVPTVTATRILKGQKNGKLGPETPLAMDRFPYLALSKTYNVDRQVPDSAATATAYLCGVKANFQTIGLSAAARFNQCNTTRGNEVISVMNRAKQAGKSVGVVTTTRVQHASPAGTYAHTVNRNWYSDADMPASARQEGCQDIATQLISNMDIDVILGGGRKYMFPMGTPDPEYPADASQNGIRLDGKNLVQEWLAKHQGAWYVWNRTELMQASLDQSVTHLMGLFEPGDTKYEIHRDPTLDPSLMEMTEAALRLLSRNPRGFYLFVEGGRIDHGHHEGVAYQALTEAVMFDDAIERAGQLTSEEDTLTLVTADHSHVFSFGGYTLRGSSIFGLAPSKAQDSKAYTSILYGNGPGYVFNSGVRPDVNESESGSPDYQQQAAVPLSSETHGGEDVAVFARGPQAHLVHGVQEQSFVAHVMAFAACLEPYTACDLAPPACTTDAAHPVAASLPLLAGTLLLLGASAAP
Assay [5] has as its target Large T antigen (Simian virus 40, UniProt P03070). It counts as functional, Betapolyomavirus macacae.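 Also: Confirmatory-stage PubChem screen for compounds that inhibit SV40 T antigen.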
Assay [6] concerns the target T3, Zinc finger protein mex-5 (Caenorhabditis elegans, UniProt Q9XUB2).
T3 sequence (Q9XUB2 whole entry): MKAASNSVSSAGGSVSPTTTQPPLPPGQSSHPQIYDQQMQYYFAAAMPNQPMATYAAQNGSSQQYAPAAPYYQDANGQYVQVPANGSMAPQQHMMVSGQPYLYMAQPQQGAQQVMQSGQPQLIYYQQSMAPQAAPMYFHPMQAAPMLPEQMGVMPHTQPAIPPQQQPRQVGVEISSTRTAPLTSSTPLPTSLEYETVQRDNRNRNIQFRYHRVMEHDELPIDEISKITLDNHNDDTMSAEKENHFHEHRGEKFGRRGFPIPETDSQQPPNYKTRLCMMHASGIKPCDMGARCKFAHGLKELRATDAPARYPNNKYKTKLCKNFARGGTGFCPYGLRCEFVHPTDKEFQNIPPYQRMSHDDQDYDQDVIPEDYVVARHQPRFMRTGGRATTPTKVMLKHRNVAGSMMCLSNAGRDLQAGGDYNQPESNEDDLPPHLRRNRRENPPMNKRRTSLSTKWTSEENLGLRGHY
Kind of assay: potency of MEX-5 RNA-binding blockers – biochemical, C. elegans, fluorescence polarization, dose response (AID 1960).

Assay [7] deals with Albumin (Bos taurus, UniProt P02769). Kind of assay: Counterscreen for inhibitors of T-cell receptor (TCR)-CD3 interaction: Fluorescence-based biochemical high throughput dose response assay to identify inhibitors of T-cell receptor (TCR)-CD3 interaction using a TAMRA-labeled BSA probe. It counts as functional. For orientation: The purpose of a counterscreen is to sort out artefacts and off-target activity.
Chain of Albumin (P02769 whole entry): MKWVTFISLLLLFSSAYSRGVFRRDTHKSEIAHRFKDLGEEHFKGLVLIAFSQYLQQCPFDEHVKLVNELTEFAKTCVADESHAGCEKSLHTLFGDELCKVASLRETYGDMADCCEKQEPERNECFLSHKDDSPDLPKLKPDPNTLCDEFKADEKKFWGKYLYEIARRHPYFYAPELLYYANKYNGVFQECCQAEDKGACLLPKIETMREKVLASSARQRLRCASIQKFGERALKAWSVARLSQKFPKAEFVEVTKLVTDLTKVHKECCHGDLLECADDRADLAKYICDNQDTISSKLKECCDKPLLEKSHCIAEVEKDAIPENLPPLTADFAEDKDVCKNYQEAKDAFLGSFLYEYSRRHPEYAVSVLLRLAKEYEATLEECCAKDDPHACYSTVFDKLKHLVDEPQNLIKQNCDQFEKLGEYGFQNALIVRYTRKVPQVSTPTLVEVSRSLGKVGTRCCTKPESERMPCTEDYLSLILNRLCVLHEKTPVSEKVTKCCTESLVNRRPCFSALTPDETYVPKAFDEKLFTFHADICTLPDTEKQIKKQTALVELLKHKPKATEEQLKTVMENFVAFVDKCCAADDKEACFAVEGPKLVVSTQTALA

Assay [8] concerns the target T4, RNA-binding protein pos-1 (Caenorhabditis elegans, UniProt G5EF15).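 Also: purified POS-1 fused to maltose binding protein made in E. coli; potency of compounds blocking POS-1 binding to fluorescent RNA.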
T4 sequence (G5EF15 whole entry): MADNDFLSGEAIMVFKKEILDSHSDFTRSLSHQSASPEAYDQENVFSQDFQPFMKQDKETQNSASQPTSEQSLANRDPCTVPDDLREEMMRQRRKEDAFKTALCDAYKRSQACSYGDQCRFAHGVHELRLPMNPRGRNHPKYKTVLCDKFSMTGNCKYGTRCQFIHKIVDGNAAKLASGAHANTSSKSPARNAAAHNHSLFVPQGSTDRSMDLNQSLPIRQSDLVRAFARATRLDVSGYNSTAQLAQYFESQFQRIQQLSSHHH
Kind of assay: disruptors of C. elegans POS-1 RNA interaction – biochemical, fluorescence polarization, dose response (AID 1964). (In general: In fluorescence polarisation assays a small probe gives low polarisation when free and higher when bound to something large.)

Assay [9] has as its target Intestinal-type alkaline phosphatase (Mus musculus, UniProt P24822). Kind of assay: PubChem AID 488785. It counts as functional.
In assay [10] the target is Peroxisome proliferator-activated receptor gamma/Nuclear receptor coactivator 2 (Homo sapiens, UniProt P37231). Kind of assay: TR-FRET dose response biochemical High Throughput Screening assay for agonists of the steroid receptor coactivator 2 (SRC-2) recruitment by the peroxisome proliferator-activated receptor gamma (PPAR gamma): non-selective agonists. [Related pubchem assays: 1297, 1032 ]. It counts as functional. A general note: TR-FRET usually uses a lanthanide donor and a delayed reading to cut background.

In assay [11] the target is Peroxisome proliferator-activated receptor gamma/Nuclear receptor coactivator 1 (Homo sapiens, UniProt P37231). Kind of assay: TR-FRET dose response biochemical High Throughput Screening assay for agonists of the steroid receptor coactivator 1 (SRC-1) recruitment by the peroxisome proliferator-activated receptor gamma (PPAR gamma): non-selective agonists. [Related pubchem assays (depositor defined):AID1300, AID1808, AID504735, AID631]. It counts as protein assay.

Assay [12] has as its target T5, Leucine aminopeptidase (Plasmodium falciparum 3D7, UniProt Q8IL11).
T5 sequence (Q8IL11 whole entry): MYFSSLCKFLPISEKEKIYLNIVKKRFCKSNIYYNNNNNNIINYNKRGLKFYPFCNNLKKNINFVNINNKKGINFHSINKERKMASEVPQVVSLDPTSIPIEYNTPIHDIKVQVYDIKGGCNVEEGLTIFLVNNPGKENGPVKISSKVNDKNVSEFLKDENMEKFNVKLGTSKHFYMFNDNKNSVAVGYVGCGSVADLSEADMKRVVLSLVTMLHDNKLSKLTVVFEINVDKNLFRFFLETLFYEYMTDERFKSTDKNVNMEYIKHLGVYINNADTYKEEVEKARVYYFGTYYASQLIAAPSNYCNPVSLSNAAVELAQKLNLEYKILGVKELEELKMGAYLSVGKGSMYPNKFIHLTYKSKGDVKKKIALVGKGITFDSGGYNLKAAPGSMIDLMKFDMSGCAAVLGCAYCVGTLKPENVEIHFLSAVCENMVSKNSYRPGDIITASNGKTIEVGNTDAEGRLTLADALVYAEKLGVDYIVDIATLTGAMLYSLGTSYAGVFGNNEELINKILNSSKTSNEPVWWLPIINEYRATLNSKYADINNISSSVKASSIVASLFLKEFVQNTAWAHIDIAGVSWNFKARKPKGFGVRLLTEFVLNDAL
Kind of assay: P. falciparum M17LAP inhibitors, primary screen, biochemical, fluorogenic H-Leu-NHMec substrate, 1536-well (AID 1619). The format is functional.

Assay [13] addresses Peroxisome proliferator-activated receptor gamma/Nuclear receptor coactivator 3 (Homo sapiens, UniProt P37231). Kind of assay: TR-FRET dose response biochemical High Throughput Screening assay for agonists of the steroid receptor coactivator 3 (SRC-3) recruitment by the peroxisome proliferator-activated receptor gamma (PPAR gamma): non-selective agonists. [Related pubchem assays: 1301 (Confirmation screen.), 1048 (Primary screen.)]. The format is functional.

Assay [14] deals with T6, Dual specificity protein phosphatase 3 (Homo sapiens, UniProt P51452). Kind of assay: SAR VHR1 Fluorescent Assay for In Vitro dose response studies. [Related pubchem assays (depositor defined):AID1654, AID1661, AID1878, AID1992, AID2004, AID2070, AID2085]. The format is functional.
T6 sequence (P51452 whole entry): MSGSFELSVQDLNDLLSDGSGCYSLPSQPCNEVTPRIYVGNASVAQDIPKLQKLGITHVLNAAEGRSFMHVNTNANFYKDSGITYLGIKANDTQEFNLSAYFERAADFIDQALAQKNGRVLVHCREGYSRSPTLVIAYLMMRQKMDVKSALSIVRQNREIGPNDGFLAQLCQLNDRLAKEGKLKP
In assay [15] the target is T7, Dual specificity protein phosphatase 6 (Rattus norvegicus, UniProt Q64346).
T7 sequence (Q64346 whole entry): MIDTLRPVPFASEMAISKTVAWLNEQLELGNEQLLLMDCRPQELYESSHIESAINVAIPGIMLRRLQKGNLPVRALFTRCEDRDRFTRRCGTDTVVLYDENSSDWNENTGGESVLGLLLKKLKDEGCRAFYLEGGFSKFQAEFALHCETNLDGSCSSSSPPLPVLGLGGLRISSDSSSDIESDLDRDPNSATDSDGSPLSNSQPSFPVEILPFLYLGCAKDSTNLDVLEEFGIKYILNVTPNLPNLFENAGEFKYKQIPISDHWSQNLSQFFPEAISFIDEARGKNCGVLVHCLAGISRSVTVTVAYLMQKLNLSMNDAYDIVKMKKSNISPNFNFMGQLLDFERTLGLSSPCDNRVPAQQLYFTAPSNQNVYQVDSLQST
It counts as functional.

For assay [16], the target named is T6, Dual specificity protein phosphatase 3. Kind of assay: SAR VHR1 absorbance Assay for In Vitro dose response studies. [Related pubchem assays (depositor defined):AID1654, AID1661, AID1878, AID1992, AID2004].
Assay [17] has the same target. Kind of assay: SAR VHR1 Fluorescent Assay for In Vitro dose response studies Set 2. [Related pubchem assays (depositor defined):AID1654, AID1661, AID1878]. The format is functional.
Assay [18] deals with T8, Tyrosine-protein phosphatase non-receptor type 7 (Homo sapiens, UniProt P35236).
T8 sequence (P35236 whole entry): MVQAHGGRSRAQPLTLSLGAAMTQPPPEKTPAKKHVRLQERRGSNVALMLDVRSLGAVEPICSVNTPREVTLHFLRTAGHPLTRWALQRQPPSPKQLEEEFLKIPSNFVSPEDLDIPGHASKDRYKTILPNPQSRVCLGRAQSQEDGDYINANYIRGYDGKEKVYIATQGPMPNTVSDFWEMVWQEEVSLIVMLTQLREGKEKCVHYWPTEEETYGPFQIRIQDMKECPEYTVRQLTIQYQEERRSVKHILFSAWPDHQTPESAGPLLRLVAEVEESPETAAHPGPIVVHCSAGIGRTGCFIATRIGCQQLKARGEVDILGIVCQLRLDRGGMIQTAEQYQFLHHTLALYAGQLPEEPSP
Kind of assay: SAR analysis of chemical inhibitors of HePTP using a Fluorescent assay - Set 2. [Related pubchem assays (depositor defined):AID1059, AID1077, AID1661, AID2085, AID521]. It counts as functional.

The target in assay [19] is T8, Tyrosine-protein phosphatase non-receptor type 7. Kind of assay: redox-active compounds inhibiting HePTP phosphatase – biochemical, fluorescence, mechanism study (AID 2068). The format is functional.
Assay [20] has the same target. Kind of assay: inhibition of hematopoietic tyrosine phosphatase HePTP – biochemical, set 2, SAR follow-up (AID 449736). The format is functional.
The target of assay [21] is T6, Dual specificity protein phosphatase 3. Kind of assay: VHR1 phosphatase inhibitors, primary screen, biochemical, absorbance, uHTS (AID 1654).
Assay [22] has as its target T7, Dual specificity protein phosphatase 6. Kind of assay: SAR analysis of inhibitors of MKP-3 - Set 2. [Related pubchem assays (depositor defined):AID1055, AID1661, AID425, AID553, AID566]. It counts as functional.
In assay [23] the target is T6, Dual specificity protein phosphatase 3. Kind of assay: VHR1 phosphatase inhibitors, biochemical (AID 1878).
For assay [24], the target named is T7, Dual specificity protein phosphatase 6. Kind of assay: inhibition of rat DUSP6 enzyme activity – biochemical, in vitro, primary screen (AID 425).

The source made the active and inactive calls. Where only a bound is given, the exact number is not on record here.

Chain of Intestinal-type alkaline phosphatase (Mus musculus, UniProt P24822) (P24822 whole entry): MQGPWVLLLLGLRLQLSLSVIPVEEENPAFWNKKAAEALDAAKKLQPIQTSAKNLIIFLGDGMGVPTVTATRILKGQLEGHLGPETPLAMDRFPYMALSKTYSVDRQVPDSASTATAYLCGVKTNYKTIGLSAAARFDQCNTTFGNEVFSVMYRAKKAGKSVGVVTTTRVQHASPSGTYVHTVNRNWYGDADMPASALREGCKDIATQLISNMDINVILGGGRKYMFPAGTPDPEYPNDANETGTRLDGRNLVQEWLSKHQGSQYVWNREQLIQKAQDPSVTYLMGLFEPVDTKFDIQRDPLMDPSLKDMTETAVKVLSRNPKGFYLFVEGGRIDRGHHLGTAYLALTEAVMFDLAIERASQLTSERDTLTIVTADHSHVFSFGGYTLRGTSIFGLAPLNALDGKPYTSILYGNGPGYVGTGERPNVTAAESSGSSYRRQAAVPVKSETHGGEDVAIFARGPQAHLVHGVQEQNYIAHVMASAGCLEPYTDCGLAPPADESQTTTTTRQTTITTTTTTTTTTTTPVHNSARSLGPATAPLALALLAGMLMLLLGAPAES
Chain of Ras and Rab interactor 1/Tyrosine-protein kinase ABL1 (P00519 whole entry): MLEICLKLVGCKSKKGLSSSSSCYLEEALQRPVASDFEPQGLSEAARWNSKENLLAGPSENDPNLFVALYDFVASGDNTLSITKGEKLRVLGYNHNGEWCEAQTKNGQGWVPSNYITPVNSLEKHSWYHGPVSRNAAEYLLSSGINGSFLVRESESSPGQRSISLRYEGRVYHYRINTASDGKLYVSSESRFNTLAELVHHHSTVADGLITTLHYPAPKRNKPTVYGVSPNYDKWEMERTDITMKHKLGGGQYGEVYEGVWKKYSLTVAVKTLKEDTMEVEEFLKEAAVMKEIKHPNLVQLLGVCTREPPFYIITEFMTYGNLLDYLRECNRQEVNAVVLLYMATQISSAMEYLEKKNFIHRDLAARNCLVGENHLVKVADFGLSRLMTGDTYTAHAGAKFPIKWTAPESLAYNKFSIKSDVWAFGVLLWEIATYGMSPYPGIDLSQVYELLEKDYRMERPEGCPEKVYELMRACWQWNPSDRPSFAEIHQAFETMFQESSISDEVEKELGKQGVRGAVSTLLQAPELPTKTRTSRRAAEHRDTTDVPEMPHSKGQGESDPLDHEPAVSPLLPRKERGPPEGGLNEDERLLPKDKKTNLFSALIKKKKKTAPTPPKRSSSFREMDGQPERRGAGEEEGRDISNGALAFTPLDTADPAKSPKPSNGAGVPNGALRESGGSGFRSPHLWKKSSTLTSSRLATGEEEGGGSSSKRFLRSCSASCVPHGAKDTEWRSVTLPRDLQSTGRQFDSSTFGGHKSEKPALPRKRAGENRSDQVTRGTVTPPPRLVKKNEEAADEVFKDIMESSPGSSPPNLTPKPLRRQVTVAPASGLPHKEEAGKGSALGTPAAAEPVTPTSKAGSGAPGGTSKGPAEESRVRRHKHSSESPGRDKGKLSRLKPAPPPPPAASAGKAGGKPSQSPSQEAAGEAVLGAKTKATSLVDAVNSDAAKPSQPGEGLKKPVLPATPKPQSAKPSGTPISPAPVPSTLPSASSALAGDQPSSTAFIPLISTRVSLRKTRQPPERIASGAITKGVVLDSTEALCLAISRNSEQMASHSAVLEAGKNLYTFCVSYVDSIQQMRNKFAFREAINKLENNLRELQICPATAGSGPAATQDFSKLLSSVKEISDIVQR
Chain of Ras and Rab interactor 1/Tyrosine-protein kinase ABL1 (Q13671 whole entry): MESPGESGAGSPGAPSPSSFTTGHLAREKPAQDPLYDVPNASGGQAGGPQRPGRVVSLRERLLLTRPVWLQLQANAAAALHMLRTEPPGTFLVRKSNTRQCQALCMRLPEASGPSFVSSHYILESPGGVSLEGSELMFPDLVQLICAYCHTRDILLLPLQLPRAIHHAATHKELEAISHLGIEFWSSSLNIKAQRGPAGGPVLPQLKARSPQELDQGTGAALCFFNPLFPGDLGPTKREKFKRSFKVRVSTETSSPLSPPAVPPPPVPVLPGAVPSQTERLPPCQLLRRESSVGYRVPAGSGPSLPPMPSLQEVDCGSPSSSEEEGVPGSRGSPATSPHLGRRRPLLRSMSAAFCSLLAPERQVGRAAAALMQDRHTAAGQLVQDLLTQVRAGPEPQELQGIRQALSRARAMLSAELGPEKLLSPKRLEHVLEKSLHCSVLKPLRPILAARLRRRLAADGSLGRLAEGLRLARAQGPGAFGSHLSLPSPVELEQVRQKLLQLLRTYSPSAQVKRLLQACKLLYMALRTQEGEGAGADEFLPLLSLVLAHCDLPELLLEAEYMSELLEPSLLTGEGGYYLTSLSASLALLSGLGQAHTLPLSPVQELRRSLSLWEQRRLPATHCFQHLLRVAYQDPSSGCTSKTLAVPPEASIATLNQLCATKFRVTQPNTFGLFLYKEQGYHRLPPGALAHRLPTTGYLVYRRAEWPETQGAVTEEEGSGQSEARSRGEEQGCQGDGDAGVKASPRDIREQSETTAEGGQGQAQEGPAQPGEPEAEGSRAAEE
Chain of Large T antigen (P03070 whole entry): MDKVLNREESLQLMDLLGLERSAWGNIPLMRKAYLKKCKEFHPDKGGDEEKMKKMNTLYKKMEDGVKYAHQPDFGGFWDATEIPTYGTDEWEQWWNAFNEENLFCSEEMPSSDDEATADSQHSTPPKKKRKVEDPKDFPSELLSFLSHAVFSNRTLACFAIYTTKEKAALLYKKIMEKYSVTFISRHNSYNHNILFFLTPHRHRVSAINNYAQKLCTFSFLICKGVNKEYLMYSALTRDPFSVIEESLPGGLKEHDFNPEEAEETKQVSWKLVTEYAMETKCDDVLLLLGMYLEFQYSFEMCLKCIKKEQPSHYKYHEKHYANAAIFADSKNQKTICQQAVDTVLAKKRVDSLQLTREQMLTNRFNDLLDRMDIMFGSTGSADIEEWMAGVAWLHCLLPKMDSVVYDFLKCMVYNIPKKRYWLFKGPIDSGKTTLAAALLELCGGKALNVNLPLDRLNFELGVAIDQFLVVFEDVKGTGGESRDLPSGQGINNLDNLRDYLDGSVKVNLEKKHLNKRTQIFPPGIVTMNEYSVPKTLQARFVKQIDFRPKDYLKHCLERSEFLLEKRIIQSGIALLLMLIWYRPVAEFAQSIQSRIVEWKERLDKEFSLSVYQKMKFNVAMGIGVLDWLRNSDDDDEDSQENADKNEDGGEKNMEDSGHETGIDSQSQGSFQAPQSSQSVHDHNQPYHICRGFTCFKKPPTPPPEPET

With `Oc1ccc(C[C@H]2NCCc3cc(O)c(O)cc32)cc1O`, the IC50 – broadly, the concentration at which inhibition is half-maximal – in assay [1] is 10.1 µM (active); in assay [2], 2.33 µM (active); in assay [3], 0.47 µM (active); in assay [5], 9.06 µM (active); in assay [7] it was > 94.1 µM (inactive); in assay [9] it was 8.06 µM (active). For the same molecule, the EC50 (usually the concentration at which the effect is half-maximal) was > 100 µM (inactive) in [4], 5.43 µM (active) in assay [6] and 6.36 µM (active) in assay [8].

Consider `CCc1nnc(NS(=O)(=O)c2ccc(N/C=C\C(=O)c3cccc4ccccc34)cc2)s1`, for which the EC50 in assay [10] is > 79.4 µM (not active); in assay [11] it was > 79.4 µM (inactive); in [13], > 8.82 µM (not active). The IC50 in assay [12] is 10.1 µM (active).

Consider `NS(=O)(=O)c1ccc(NC(=S)NC2CCCCC2)cc1`, for which the IC50 in [14] is > 99 µM (inactive); in [15], > 99 µM (inactive); in [16] it was 0.704 µM (active); in assay [17], 0.143 µM (active); in [18] it was 1.27 µM (active); in [19], 0.025 µM (active). Also, the IC50 is > 100 µM (inactive) in assay [20]; 2.15 µM (active) in assay [21]; > 100 µM (inactive) in [22]; 3.49 µM (active) in assay [23]; > 158 µM (not active) in assay [24].
